# Test results: patent US10800791B2, “Triazole ACC inhibitors and uses thereof” (Gilead Apollo, LLC, priority 2015, dated 2020)
# Like-named read-outs stand apart in the source and are kept apart here.
# Assays:
# [1] = tested on: Collectotrichum graminicola (Cg); assay: Growth inhibition assay of fungal pathogens, Cg; format: cell-based; details: 48 h
# How it was run: (§1)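 Spores from sub-cultured plates were diluted in 17% V8 liquid medium and exposed to compound from DMSO stocks at final concentrations of 50, 10 and 2 ppm or 2, 0.4 and 0.08 ppm. OD600 and visual ratings at 48 h were compared with the 2% DMSO control to give percent growth inhibition.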
# C. albicans = assay: Antifungal Activity Assay (broth microtiter MIC), C. albicans; format: cell-based, Candida albicans; details: Candida albicans, ATCC90028, 48 h
# How it was run: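 Endpoint: lowest concentration visibly inhibiting growth relative to control after 48 h. Inoculum of 2.5×10^3 CFU/mL final in RPMI 1640+MOPS, prepared from overnight 35° C agar cultures; test compounds diluted in water to 128 μg/mL before plating.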
# Diplodia maydis (Dm) = assay: Growth inhibition assay of fungal pathogens, Dm; format: cell-based; details: Stenocarpella maydis, 48 h
# How it was run: as §1
# [2] = Collectotrichum graminicola, growth inhibition at 48 hours vs 2% DMSO control, read-out: Concentration at 90% Inhibition Cg
# [3] = Collectotrichum graminicola, growth inhibition vs 2% DMSO control at 48 hours, read-out: Concentration at 90% Inhibition Cg
# [4] = Table 3a, ATCC 90028, 3 replicates, MIC recorded at 48 h, read-out: MIC, C. albicans ATCC 90028
# [5] = Table 3b (additional results), ATCC 90028, 3 replicates, MIC recorded at 48 h, read-out: MIC, C. albicans ATCC 90028
# [6] = Diplodia maydis, growth inhibition at 48 hours vs 2% DMSO control, read-out: Concentration at 90% Inhibition Dm
# [7] = Diplodia maydis, growth inhibition vs 2% DMSO control at 48 hours, read-out: Concentration at 90% Inhibition Dm
# [8] = read-out: Concentration at 90% Inhibition Cg, Collectotrichum graminicola, growth inhibition at 48 hours vs 2% DMSO control
# [9] = read-out: Concentration at 90% Inhibition Cg, Collectotrichum graminicola, growth inhibition vs 2% DMSO control at 48 hours
# [10] = read-out: MIC, C. albicans ATCC 90028, Table 3a, 3 replicates, MIC recorded at 48 h
# [11] = read-out: MIC, C. albicans ATCC 90028, Table 3b (additional results), 3 replicates, MIC recorded at 48 h
# [12] = read-out: Concentration at 90% Inhibition Dm, Diplodia maydis, growth inhibition at 48 hours vs 2% DMSO control
# [13] = read-out: Concentration at 90% Inhibition Dm, Diplodia maydis, growth inhibition vs 2% DMSO control at 48 hours
Compound,"IC90 [1, 2] [µg/mL]","IC90 [1, 3] [µg/mL]",MIC (C. albicans; [4]) [µg/mL],MIC (C. albicans; [5]) [µg/mL],IC90 (Diplodia maydis (Dm); [6]) [µg/mL],IC90 (Diplodia maydis (Dm); [7]) [µg/mL],"IC90 [1, 8] [µg/mL]","IC90 [1, 9] [µg/mL]",MIC (C. albicans; [10]) [µg/mL],MIC (C. albicans; [11]) [µg/mL],IC90 (Diplodia maydis (Dm); [12]) [µg/mL],IC90 (Diplodia maydis (Dm); [13]) [µg/mL]
"COc1ccc(F)cc1[C@H](Cn1c(=O)n([C@H](C)C(=O)N(C)C(C)C)c(=O)c2c(C)c(-n3nccn3)sc21)OCCO [Compound I-85, (R)-2-(1-((R)-2-(5-fluoro-2-methoxyphenyl)-2-(2-hydroxy-ethoxy)ethyl)-5-methyl-2,4-dioxo-6-(2H-1,2,3-triazol-2-yl)-1,4-dihydro-thieno[2,3-d]pyrimidin-3(2H)-yl)-N-isopropyl-N-methylpropanamide]",0.08,0.08,0.25 to 1,1.01 to 2,0.08,0.08,–,–,–,–,–,–
"COCCCO[C@@H](Cn1c(=O)n([C@@H](C)C(=O)NC(C)C)c(=O)c2c(C)c(-n3nccn3)sc21)c1cc(F)ccc1OC [Compound I-86, (S)-2-(1-((R)-2-(5-fluoro-2-methoxyphenyl)-2-(3-methoxy-propoxy)ethyl)-5-methyl-2,4-dioxo-6-(2H-1,2,3-triazol-2-yl)-1,4-dihydrothieno[2,3-d]pyrimidin-3(2H)-yl)-N-isopropylpropanamide]",–,–,–,–,–,–,10,> 50,2.1 to 4,2.01 to 4,2,2
"COCCCO[C@@H](Cn1c(=O)n([C@H](C)C(=O)NC(C)C)c(=O)c2c(C)c(-n3nccn3)sc21)c1cc(F)ccc1OC [Compound I-87, (R)-2-(1-((R)-2-(5-fluoro-2-methoxyphenyl)-2-(3-methoxy-propoxy)ethyl)-5-methyl-2,4-dioxo-6-(2H-1,2,3-triazol-2-yl)-1,4-dihydrothieno[2,3-d]pyrimidin-3(2H)-yl)-N-isopropylpropanamide]",0.08,0.08,1.1 to 2,2.01 to 4,0.4,0.4,–,–,–,–,–,–
"COc1ccc(F)cc1[C@H](Cn1c(=O)n([C@@H](C)C(=O)NC(C)C)c(=O)c2c(C)c(-n3nccn3)sc21)OCCO [Compound I-88, (S)-2-(1-((R)-2-(5-fluoro-2-methoxyphenyl)-2-(2-hydroxyethoxy)ethyl)-5-methyl-2,4-dioxo-6-(2H-1,2,3-triazol-2-yl)-1,4-dihydro-thieno[2,3-d]pyrimidin-3(2H)-yl)-N-isopropylpropanamide]",–,–,–,–,–,–,0.08,0.08,1.1 to 2,2.01 to 4,0.4,0.4
"COc1ccc(F)cc1[C@H](Cn1c(=O)n([C@H](C)C(=O)NC(C)C)c(=O)c2c(C)c(-n3nccn3)sc21)OCCO [Compound I-89, (R)-2-(1-((R)-2-(5-fluoro-2-methoxyphenyl)-2-(2-hydroxy-ethoxy)ethyl)-5-methyl-2,4-dioxo-6-(2H-1,2,3-triazol-2-yl)-1,4-dihydrothieno[2,3-d]pyrimidin-3(2H)-yl)-N-isopropylpropanamide]",–,–,–,–,–,–,> 50,> 50,2.1 to 4,2.01 to 4,2,10
"COc1ccc(F)cc1[C@H](Cn1c(=O)n(C(C)(C)C(=O)NC(C)C)c(=O)c2c(C)c(-n3nccn3)sc21)OCCC(N)=O [Compound I-90, (R)-2-(1-(2-(3-amino-3-oxopropoxy)-2-(5-fluoro-2-metho-xyphenyl)ethyl)-5-methyl-2,4-dioxo-6-(2H-1,2,3-triazol-2-yl)-1,4-dihydro-thieno[2,3-d]pyrimidin-3(2H)-yl)-N-isopropyl-2-methylpropanamide]",10,> 50,2.1 to 4,0.25 to 1,> 50,> 50,–,–,–,–,–,–
"COc1ccc(F)cc1[C@H](Cn1c(=O)n(C(C)(C)C(=O)NC(C)C)c(=O)c2c(C)c(-n3nccn3)sc21)OCCC#N [Compound I-91, (R)-2-(1-(2-(2-cyanoethoxy)-2-(5-fluoro-2-methoxy-phenyl)ethyl)-5-methyl-2,4-dioxo-6-(2H-1,2,3-triazol-2-yl)-1,4-dihydro-thieno[2,3-d]pyrimidin-3(2H)-yl)-N-isopropyl-2-methylpropanamide]",0.08,0.08,0.25 to 1,1.01 to 2,0.08,0.08,–,–,–,–,–,–
